SMILES strings stand for the structures. Converted amounts (≈) assume the structure as drawn.

In general, Solubility refers to the dissolved amount per volume that the medium holds. A high value points to much dissolved substance. Broadly, the solubility is the concentration that dissolves in the medium under given conditions. A lower solubility goes with a poorly soluble substance.

One data set addresses Human KCNQ2/3 channel (Homo sapiens (Human), UniProt O43525+O43526). Nature of the data set: Opening action with respect to KCNQ2/3 channel by depolarization stimulation (thallium influx, FLIPR). The class given is cell-based. The following applies: concentration giving 50% of maximum reaction of retigabine (10 μM); human KCNQ2/3 expression CHO-DHFR- cells; 5 mM potassium and 0.5 mM thallium; read-out: KCNQ2/3 ECrtg50. On the procedure: Human KCNQ2/3 expression cells (CHO-DHFR-cells) were seeded in each well of 384 well plate (collagen-coated, black, clear bottom) at 0.5×10^4 cells/50 μL per well, and cultured in a MEM ALPHA medium (containing 10 vol % inactivated (56° C., 30 min) Fetal Bovine Serum and 100 IU/mL Penicillin—100 μg/mL Streptomycin—2 mM L-Glutamine) at 37° C. in 5% CO2 for 18 to 24 hours. The medium in the plate was removed. Then, incubation (room temperature, 60 minutes, light-shielded) was carried out in a loading buffer (prepared by the method described in the manual of FluxOR Thallium Detection Kit (Invitrogen, F10016, F10017)). KCNQ2/3 channel opening action (thallium influx into cells) by the depolarization stimulation (5 mM potassium and 0.5 mM thallium) was measured by FLIPR TETRA (Molecular Devices). The compound of the present invention had been treated five minutes before the depolarization stimulation, and the reaction induced by the depolarization stimulation was measured over time for 180 seconds. The channel opening action of the compound of the present invention was evaluated based on the change amount of the fluorescence intensity from the time before the depolarization stimulation to the time after the passage of 180 seconds. Thus, the concentration (ECrtg50) satisfying 50% of the fluorescence intensity change of maximum reaction (at the time of 10 μM-treatment) of retigabine under this experiment condition was calculated.

A short description of data set [1]: Solubility test (DMSO precipitation method, Pharmacopoeia of Japan elution test second solution). The class given is physicochemical. The following applies: Pharmacopoeia of Japan elution test second solution pH=6.8, room temperature, five hours, quantitation range 5 to 100 μM; for solubility at 5 h: aqueous buffer, kinetic from dmso stock. On the procedure:
A calibration curve solution was prepared by diluting a test substance (10 mM DMSO solution) with acetonitrile and adding acetonitrile including an internal standard substance (candesartan) so as to be 0.1, 0.4, and 2 μM.
Sample solution was prepared as follows: 5 μL of the compound of the present invention (10 mM DMSO solution) was added to 495 μL of the Pharmacopoeia of Japan elution test second solution (pH=6.8), and the resulting mixture was stirred at room temperature for five hours. Then, the solution was placed into a solubility filter plate and subjected to suction filtration. The filtrate (20 μL) was diluted with acetonitrile, followed by adding acetonitrile including an internal standard substance ([…]).
The calibration curve and sample solutions in the amount of 5 μL were infused into LC-MS/MS (Discovery Max manufactured by Thermo Scientific) and subjected to quantitation (quantitation range: 5 to 100 μM).

Turning to `CC(O)(c1ccc(NC(=O)NCc2ccc(C(F)(F)F)cn2)cc1)C(F)(F)F` (centres unmarked) [Comparative Example 1, 1-[4-(1,1,1-trifluoro-2-hydroxy-2-propanyl)phenyl]-3-{[5-(trifluoromethyl)-2-pyridinyl]methyl}urea, reference compound], the EC50 on Human KCNQ2/3 channel was greater than 10000 nM.

In data set [1], `O=C(Cc1ccc(F)cc1)Nc1c(Cl)cc(Cl)cc1Br` [Comparative Example 2, N-(2-bromo-4,6-dichlorophenyl)-2-(4-fluorophenyl)acetamide, reference compound] gave a Solubility of less than 5 µM and a solubility at 5 h of less than 5 µM.

As to `CC(O)(c1cc(Cl)c(NC(=O)NCc2cccc(N3CCCCC3)n2)c(Cl)c1)C(F)(F)F` (centres unmarked) [Example 5 (3), 1-[2,6-dichloro-4-(1,1,1-trifluoro-2-hydroxy-2-propanyl)phenyl]-3-{[6-(1-piperidinyl)-2-pyridinyl]methyl}urea], the EC50 at Human KCNQ2/3 channel worked out at 500 nM.

For `CC(NC(=O)Nc1c(Cl)cc(C(C)(O)C(F)(F)F)cc1Cl)C(C)(C)C` (centres unmarked) [Example 5 (4), 1-[2,6-dichloro-4-(1,1,1-trifluoro-2-hydroxy-2-propanyl)phenyl]-3-(3,3-dimethyl-2-butanyl)urea], the EC50 at Human KCNQ2/3 channel is 3 nM. Also, the concentration in solution in data set [1] (solubility at 5 h) was 79 µM (≈ 31.7 µg/mL).

For the molecule `CC1(C)CC(CNC(=O)Nc2c(Cl)cc(C(C)(O)C(F)(F)F)cc2Cl)CCO1` (centres unmarked) [Example 5 (5), 1-[2,6-dichloro-4-(1,1,1-trifluoro-2-hydroxy-2-propanyl)phenyl]-3-[(2,2-dimethyltetrahydro-2H-pyran-4-yl)methyl]urea], the EC50 on Human KCNQ2/3 channel amounted to 300 nM. In data set [1], this molecule came in with a solubility at 5 h of 93 µM (≈ 41.2 µg/mL).

Consider `CC(O)(c1cc(Cl)c(NC(=O)NCC2(O)CCC(F)(F)CC2)c(Cl)c1)C(F)(F)F` (centres unmarked) [Example 5 (6), 1-[2,6-dichloro-4-(1,1,1-trifluoro-2-hydroxy-2-propanyl)phenyl]-3-[(4,4-difluoro-1-hydroxycyclohexyl)methyl]urea], for which the EC50 on Human KCNQ2/3 channel was found to be 400 nM. In data set [1], the solubility at 5 h was 94 µM (≈ 43.7 µg/mL).

For the molecule `Cc1cccnc1CNC(=O)Nc1c(Cl)cc(C(C)(O)C(F)(F)F)cc1Cl` (centres unmarked) [Example 5 (7), 1-[2,6-dichloro-4-(1,1,1-trifluoro-2-hydroxy-2-propanyl)phenyl]-3-[(3-methyl-2-pyridinyl)methyl]urea], the EC50 at Human KCNQ2/3 channel stood at 500 nM.

Turning to `CC(O)(c1cc(Cl)c(NC(=O)NCc2ccc(Cl)s2)c(Cl)c1)C(F)(F)F` (centres unmarked) [Example 5 (8), 1-[(5-chloro-2-thienyl)methyl]-3-[2,6-dichloro-4-(1,1,1-trifluoro-2-hydroxy-2-propanyl)phenyl]urea], the EC50 at Human KCNQ2/3 channel was found to be 1 nM.

As for `CC(O)(c1cc(Cl)c(NC(=O)NCc2ncccc2C(F)(F)F)c(Cl)c1)C(F)(F)F` (centres unmarked) [Example 5 (9), 1-[2,6-dichloro-4-(1,1,1-trifluoro-2-hydroxy-2-propanyl)phenyl]-3-{[3-(trifluoromethyl)-2-pyridinyl]methyl}urea], the EC50 on Human KCNQ2/3 channel amounted to 300 nM. The solubility at 5 h in data set [1] was 91 µM (≈ 43.3 µg/mL).

For `CC(O)(c1cc(Cl)c(NC(=O)NCC2CCCCC2)c(Cl)c1)C(F)(F)F` (centres unmarked) [Example 5 (10), 1-(cyclohexylmethyl)-3-[2,6-dichloro-4-(1,1,1-trifluoro-2-hydroxy-2-propanyl)phenyl]urea], the EC50 at Human KCNQ2/3 channel stood at 0.3 nM.

Consider `CC(O)(c1cc(Cl)c(NC(=O)NCc2ccc(Br)cn2)c(Cl)c1)C(F)(F)F` (centres unmarked) [Example 5 (11), 1-[(5-bromo-2-pyridinyl)methyl]-3-[2,6-dichloro-4-(1,1,1-trifluoro-2-hydroxy-2-propanyl)phenyl]urea], for which the EC50 on Human KCNQ2/3 channel is 70 nM.

On to `CC(O)(c1cc(Cl)c(NC(=O)NCc2nccn2Cc2ccccc2)c(Cl)c1)C(F)(F)F` (centres unmarked) [Example 5 (12), 1-[(1-benzyl-1H-imidazole-2-yl)methyl]-3-[2,6-dichloro-4-(1,1,1-trifluoro-2-hydroxy-2-propanyl)phenyl]urea], for which the EC50 at Human KCNQ2/3 channel stood at 2900 nM.

In the case of `CC(O)(c1cc(Cl)c(NC(=O)NCc2cc(-c3ccccc3)on2)c(Cl)c1)C(F)(F)F` (centres unmarked) [Example 5 (16), 1-[2,6-dichloro-4-(1,1,1-trifluoro-2-hydroxy-2-propanyl)phenyl]-3-[(5-phenyl-1,2-oxazole-3-yl)methyl]urea], on Human KCNQ2/3 channel, the EC50 came out at 10 nM.

For the molecule `CC(O)(c1cc(Cl)c(NC(=O)NCc2ccc(C(F)(F)F)o2)c(Cl)c1)C(F)(F)F` (centres unmarked) [Example 5 (17), 1-[2,6-dichloro-4-(1,1,1-trifluoro-2-hydroxy-2-propanyl)phenyl]-3-{[5-(trifluoromethyl)-2-furyl]methyl}urea], the EC50 at Human KCNQ2/3 channel amounted to 3 nM.

For `CC(C)[C@@H](C)NC(=O)Nc1c(Cl)cc(C(C)(O)C(F)(F)F)cc1Cl` (stereo partly drawn) [Example 5 (21), 1-[2,6-dichloro-4-(1,1,1-trifluoro-2-hydroxy-2-propanyl)phenyl]-3-[(2R)-3-methyl-2-butanyl]urea], the EC50 on Human KCNQ2/3 channel was found to be 70 nM.

Consider `CC(O)(c1cc(Cl)c(NC(=O)NCc2nc(C3CC3)no2)c(Cl)c1)C(F)(F)F` (centres unmarked) [Example 5 (22), 1-[(3-cyclopropyl-1,2,4-oxadiazole-5-yl)methyl]-3-[2,6-dichloro-4-(1,1,1-trifluoro-2-hydroxy-2-propanyl)phenyl]urea], for which the EC50 on Human KCNQ2/3 channel came to 700 nM. The molecule further displayed a solubility at 5 h in data set [1] of 85 µM (≈ 37.3 µg/mL).

`CC(C)(C)c1cc(CNC(=O)Nc2c(Cl)cc(C(C)(O)C(F)(F)F)cc2Cl)no1` (centres unmarked) [Example 13, 1-[2,6-dichloro-4-(1,1,1-trifluoro-2-hydroxy-2-propanyl)phenyl]-3-{[5-(2-methyl-2-propanyl)-1,2-oxazole 3-yl]methyl}urea]: on Human KCNQ2/3 channel, the EC50 is 10 nM. In data set [1], this molecule yielded a solubility at 5 h of 69 µM (≈ 31.3 µg/mL).

Consider `CC(O)(c1cc(Cl)c(NC(=O)NCc2ncc(C(F)(F)F)cn2)c(Cl)c1F)C(F)(F)F` (centres unmarked) [Example 43 (1), 1-[2,6-dichloro-3-fluoro-4-(1,1,1-trifluoro-2-hydroxy-2-propanyl)phenyl]-3-{[5-(trifluoromethyl)-2-pyrimidinyl]methyl}urea], for which the EC50 at Human KCNQ2/3 channel turned out to be 400 nM. The solubility at 5 h in data set [1] was found to be 89 µM (≈ 44.1 µg/mL).

Turning to `CC(O)(c1cc(F)c(NC(=O)NCc2ccc(C(F)(F)F)cn2)c(Cl)c1)C(F)(F)F` (centres unmarked) [Example 49, 1-[2-chloro-6-fluoro-4-(1,1,1-trifluoro-2-hydroxy-2-propanyl)phenyl]-3-{[5-(trifluoromethyl)-2-pyridinyl]methyl}urea], the EC50 at Human KCNQ2/3 channel worked out at 600 nM.

With `CC(O)(c1cc(Cl)c(NC(=O)CCc2ccc(F)cc2)c(Cl)c1)C(F)(F)F` (centres unmarked) [Example 50 (2), N-[2,6-dichloro-4-(1,1,1-trifluoro-2-hydroxy-2-propanyl)phenyl]-3-(4-fluorophenyl)propanamide], the EC50 at Human KCNQ2/3 channel is 30 nM. In data set [1], this molecule gave a solubility at 5 h of 41 µM (≈ 17.4 µg/mL).

With `CC(C)(C)CC(=O)Nc1c(Cl)cc(C(C)(O)C(F)(F)F)cc1Cl` (centres unmarked) [Example 50 (4), N-[2,6-dichloro-4-(1,1,1-trifluoro-2-hydroxy-2-propanyl)phenyl]-3,3-dimethylbutane amide], the EC50 at Human KCNQ2/3 channel was determined as 50 nM.

On to `CC(O)(c1cc(Cl)c(NC(=O)CCc2cccc(C(F)(F)F)c2)c(Cl)c1)C(F)(F)F` (centres unmarked) [Example 50 (6), N-[2,6-dichloro-4-(1,1,1-trifluoro-2-hydroxy-2-propanyl)phenyl]-3-[3-(trifluoromethyl)phenyl]propanamide], for which, at Human KCNQ2/3 channel, the EC50 is 60 nM.

With `CC(O)(c1cc(Cl)c(NC(=O)CCc2ccccc2C(F)(F)F)c(Cl)c1)C(F)(F)F` (centres unmarked) [Example 50 (7), N-[2,6-dichloro-4-(1,1,1-trifluoro-2-hydroxy-2-propanyl)phenyl]-3-[2-(trifluoromethyl)phenyl]propanamide], the EC50 at Human KCNQ2/3 channel turned out to be 40 nM.

On to `CC(O)(CC(F)(F)F)c1cc(Cl)c(NC(=O)NCc2ccc(C(F)(F)F)cn2)c(Cl)c1` (centres unmarked) [Example 67, 1-[2,6-dichloro-4-(4,4,4-trifluoro-2-hydroxy-2-butanyl)phenyl]-3-{[5-(trifluoromethyl)-2-pyridinyl]methyl}urea], for which, on Human KCNQ2/3 channel, the EC50 amounted to 3500 nM.

Take `COC(C)(c1cc(Cl)c(NC(=O)NCc2ccc(C(F)(F)F)cn2)c(Cl)c1)C(F)(F)F` (centres unmarked) [Example 71, 1-[2,6-dichloro-4-(1,1,1-trifluoro-2-methoxy-2-propanyl)phenyl]-3-{[5-(trifluoromethyl)-2-pyridinyl]methyl}urea]: the EC50 on Human KCNQ2/3 channel worked out at 200 nM.

Regarding `NC(c1cc(Cl)c(NC(=O)NCc2cnc(C(F)(F)F)s2)c(Cl)c1)C(F)(F)F` (centres unmarked) [Example 79 (4), 1-[4-(1-amino-2,2,2-trifluoroethyl)-2,6-dichlorophenyl]-3-{[2-(trifluoromethyl)-1,3-thiazole-5-yl]methyl}urea], on Human KCNQ2/3 channel, the EC50 was 300 nM.
